Key:
[1] = tested on: A549-ACE2; assay: phospholipidosis EC50; higher = less potent phospholipidosis inducer
[2] = tested on: U2OS; assay: cell viability relative to DMSO; higher = less toxic; details: 72 h
[3] = tested on: Vero E6; assay: as above; details: 72 h
[4] = tested on: Calu-3; assay: as above; details: 72 h
[5] = tested on: Caco-2; assay: as above; details: 72 h
[6] = tested on: HepG2; assay: as above; details: 72 h
[7] = tested on: A549-ACE2 infected with SARS-CoV-2; assay: morphology score (similarity to uninfected cells); higher = more like uninfected cells; details: 24 h
[8] = tested on: A549-ACE2 infected with SARS-CoV-2; assay: cell count relative to DMSO; higher = less toxic; details: 24 h
[9] = tested on: A549-ACE2; assay: drug-induced phospholipidosis relative to tamoxifen; higher = more phospholipidosis
[10] = tested on: A549-ACE2 infected with SARS-CoV-2; assay: SARS-CoV-2 infection rate relative to DMSO; higher = more infection; details: 24 h
[11] = tested on: U2OS; assay: drug sensitivity score (DSS) for viability; higher = more toxic; extreme values may be limits of the assay; details: 72 h
[12] = tested on: Vero E6; assay: as above; details: 72 h
[13] = tested on: Calu-3; assay: as above; details: 72 h
[14] = tested on: Caco-2; assay: as above; details: 72 h
[15] = tested on: HepG2; assay: as above; details: 72 h
[16] = tested on: Calu-3; assay: relative viability EC50 (midpoint between 100% and the lowest measured viability); higher = less toxic; details: 72 h
[17] = tested on: U2OS; assay: as above; details: 72 h
[18] = tested on: Vero E6; assay: as above; details: 72 h
[19] = tested on: HepG2; assay: as above; details: 72 h
[20] = tested on: Caco-2; assay: as above; details: 72 h

NC1(c2ccc(-c3nc4ccn5c(=O)[nH]nc5c4cc3-c3ccccc3)cc2)CCC1 [MK-2206]
Details	SARS-CoV-2 infection rate [%]	cell count [%]	cell viability [%]	morphology score	phospholipidosis EC50 [µM]
[1], 24 h	–	–	–	–	3.24
[1], 48 h	–	–	–	–	3.44
[2], 1 nM	–	–	104	–	–
[2], 10 nM	–	–	103	–	–
[2], 100 nM	–	–	96.9	–	–
[2], 1000 nM	–	–	89	–	–
[2], 10000 nM	–	–	67.8	–	–
[3], 1 nM	–	–	94	–	–
[3], 10 nM	–	–	94.7	–	–
[3], 100 nM	–	–	93.4	–	–
[3], 1000 nM	–	–	81	–	–
[3], 10000 nM	–	–	63.2	–	–
[4], 1 nM	–	–	104	–	–
[4], 10 nM	–	–	100	–	–
[4], 100 nM	–	–	84.1	–	–
[4], 1000 nM	–	–	63	–	–
[4], 10000 nM	–	–	38	–	–
[5], 1 nM	–	–	102	–	–
[5], 10 nM	–	–	95.3	–	–
[5], 100 nM	–	–	87.1	–	–
[5], 1000 nM	–	–	75	–	–
[5], 10000 nM	–	–	66.2	–	–
[6], 1 nM	–	–	95.6	–	–
[6], 10 nM	–	–	93.7	–	–
[6], 100 nM	–	–	84.8	–	–
[6], 1000 nM	–	–	66.1	–	–
[6], 10000 nM	–	–	59	–	–
[7], 0.1 µM	–	–	–	0.19	–
[7], 0.3 µM	–	–	–	0.27	–
[7], 1 µM	–	–	–	0.31	–
[7], 3 µM	–	–	–	0.79	–
[8], 0.1 µM	–	100	–	–	–
[8], 0.3 µM	–	99	–	–	–
[8], 1 µM	–	85	–	–	–
[8], 3 µM	–	103	–	–	–
[10], 0.1 µM	105	–	–	–	–
[10], 0.3 µM	101	–	–	–	–
[10], 1 µM	97	–	–	–	–
[10], 3 µM	29	–	–	–	–

drug-induced phospholipidosis [%], [9]
Details	0.3 µM	0.833333 µM	3.33333 µM	6.66667 µM	10 µM	30 µM
24 h	3.85	16.3	76	128	149	82.1
48 h	2.41	16.9	89	158	169	–
72 h	0.889	14.8	66.8	–	–	–

Details	drug sensitivity score	relative viability EC50 [µM]
[11]	2.7	–
[12]	3.9	–
[13]	8.7	–
[14]	5.4	–
[15]	7.6	–
[16]	–	0.49

CC(C)n1nc(C#Cc2ccccc2)c2c(N)ncnc21 [SPP86]
Details	SARS-CoV-2 infection rate [%]	cell count [%]	cell viability [%]	morphology score	phospholipidosis EC50 [µM]
[1], 24 h	–	–	–	–	15.1
[2], 1 nM	–	–	106	–	–
[2], 10 nM	–	–	109	–	–
[2], 100 nM	–	–	107	–	–
[2], 1000 nM	–	–	107	–	–
[2], 10000 nM	–	–	75.7	–	–
[3], 1 nM	–	–	99.7	–	–
[3], 10 nM	–	–	99.7	–	–
[3], 100 nM	–	–	100	–	–
[3], 1000 nM	–	–	98.5	–	–
[3], 10000 nM	–	–	81.3	–	–
[4], 1 nM	–	–	107	–	–
[4], 10 nM	–	–	104	–	–
[4], 100 nM	–	–	99.7	–	–
[4], 1000 nM	–	–	92.7	–	–
[4], 10000 nM	–	–	62.8	–	–
[5], 1 nM	–	–	98.1	–	–
[5], 10 nM	–	–	98.9	–	–
[5], 100 nM	–	–	88.9	–	–
[5], 1000 nM	–	–	67.7	–	–
[5], 10000 nM	–	–	56.5	–	–
[6], 1 nM	–	–	102	–	–
[6], 10 nM	–	–	106	–	–
[6], 100 nM	–	–	103	–	–
[6], 1000 nM	–	–	60.9	–	–
[6], 10000 nM	–	–	34.4	–	–
[7], 0.3 µM	–	–	–	0.34	–
[7], 3 µM	–	–	–	0.41	–
[7], 10 µM	–	–	–	0.54	–
[7], 30 µM	–	–	–	0.29	–
[8], 0.3 µM	–	103	–	–	–
[8], 3 µM	–	103	–	–	–
[8], 10 µM	–	106	–	–	–
[8], 30 µM	–	84	–	–	–
[10], 0.3 µM	90	–	–	–	–
[10], 3 µM	89	–	–	–	–
[10], 10 µM	53	–	–	–	–
[10], 30 µM	32	–	–	–	–

drug-induced phospholipidosis [%], [9]
Details	0.3 µM	0.833333 µM	3.33333 µM	6.66667 µM	10 µM	30 µM
24 h	3.29	3.69	12.6	41.4	63.6	142
48 h	3.96	2.69	12.1	21.7	35.6	–
72 h	6.41	0.816	8.31	18.5	28.1	–

Details	drug sensitivity score	relative viability EC50
[11]	0.6	–
[12]	0.7	–
[13]	3	–
[14]	6.9	–
[15]	8.3	–
[17]	–	> 10 µM
[18]	–	> 10 µM
[19]	–	858 nM

C[C@H](Oc1cc(-c2cnn(C3CCNCC3)c2)cnc1N)c1c(Cl)ccc(F)c1Cl [crizotinib-(S)]
Details	SARS-CoV-2 infection rate [%]	cell count [%]	cell viability [%]	morphology score	phospholipidosis EC50 [µM]
[1], 24 h	–	–	–	–	1.79
[1], 48 h	–	–	–	–	3.04
[1], 72 h	–	–	–	–	3.1
[2], 1 nM	–	–	98.3	–	–
[2], 10 nM	–	–	96.3	–	–
[2], 100 nM	–	–	99.2	–	–
[2], 1000 nM	–	–	96	–	–
[2], 10000 nM	–	–	41.1	–	–
[3], 1 nM	–	–	97.2	–	–
[3], 10 nM	–	–	99.6	–	–
[3], 100 nM	–	–	100	–	–
[3], 1000 nM	–	–	97	–	–
[3], 10000 nM	–	–	80.7	–	–
[4], 1 nM	–	–	97.8	–	–
[4], 10 nM	–	–	96.2	–	–
[4], 100 nM	–	–	100.3	–	–
[4], 1000 nM	–	–	100.4	–	–
[4], 10000 nM	–	–	40	–	–
[5], 1 nM	–	–	93.9	–	–
[5], 10 nM	–	–	95.3	–	–
[5], 100 nM	–	–	99.2	–	–
[5], 1000 nM	–	–	95.1	–	–
[5], 10000 nM	–	–	62.1	–	–
[6], 1 nM	–	–	100	–	–
[6], 10 nM	–	–	108	–	–
[6], 100 nM	–	–	104	–	–
[6], 1000 nM	–	–	90.9	–	–
[6], 10000 nM	–	–	43.3	–	–
[7], 0.1 µM	–	–	–	0.15	–
[7], 0.3 µM	–	–	–	0.025	–
[7], 1 µM	–	–	–	0.27	–
[7], 3 µM	–	–	–	0.71	–
[7], 10 µM	–	–	–	0.36	–
[7], 30 µM	–	–	–	-0.08	–
[8], 0.1 µM	–	100	–	–	–
[8], 0.3 µM	–	102	–	–	–
[8], 1 µM	–	87	–	–	–
[8], 3 µM	–	93	–	–	–
[8], 10 µM	–	109	–	–	–
[8], 30 µM	–	18	–	–	–
[10], 0.1 µM	96	–	–	–	–
[10], 0.3 µM	100	–	–	–	–
[10], 1 µM	94	–	–	–	–
[10], 3 µM	30	–	–	–	–
[10], 10 µM	24	–	–	–	–
[10], 30 µM	82	–	–	–	–

drug-induced phospholipidosis [%], [9]
Details	0.3 µM	0.833333 µM	3.33333 µM	6.66667 µM	10 µM	30 µM
24 h	8.27	14.6	93.6	107	67.9	67.2
48 h	6.57	10.9	65	95.4	72.5	79.1
72 h	6.4	9.01	64.9	97.9	71.4	94.9

Details	drug sensitivity score	relative viability EC50
[11]	3.9	–
[12]	0.8	–
[13]	3.2	–
[14]	2.6	–
[15]	4.45	–
[16]	–	3.21 µM
[17]	–	2.61 µM
[19]	–	2220 nM

Cc1ccc(-n2nc(C(C)(C)C)cc2NC(=O)Nc2ccc(OCCN3CCOCC3)c3ccccc23)cc1 [doramapimod]
Details	SARS-CoV-2 infection rate, [10] [%]	cell count, [8] [%]	cell viability, [2] [%]	cell viability, [3] [%]	cell viability, [4] [%]	cell viability, [5] [%]	cell viability, [6] [%]	morphology score, [7]
1 nM	–	–	98.6	108	114	93.8	107	–
10 nM	–	–	104	95.2	97.3	108	105	–
100 nM	–	–	91.6	95.5	92.4	89.3	99.7	–
0.3 µM	105	91	–	–	–	–	–	-0.27
1000 nM	–	–	93.7	95.7	97.2	90.9	104	–
3 µM	68	105	–	–	–	–	–	0.36
10000 nM	–	–	95.6	104	88.4	93.6	111	–
10 µM	72	115	–	–	–	–	–	0.7
30 µM	16	70	–	–	–	–	–	0.44

drug-induced phospholipidosis [%], [9]
Details	0.3 µM	0.833333 µM	3.33333 µM	6.66667 µM	10 µM	30 µM
24 h	-1.22	-3.86	-2.5	7.51	20.8	66.3
48 h	-2.88	-4.62	-1.1	6.99	15.5	–
72 h	-1.89	-3.86	1.71	12.1	19.8	–

Details	drug sensitivity score	relative viability EC50
[11]	0	–
[12]	0	–
[13]	0	–
[14]	0.3	–
[15]	0	–
[16]	–	> 10 µM
[17]	–	> 10 µM
[18]	–	> 10 µM
[19]	–	> 10000 nM
[20]	–	> 10 µM

Reference: the supplement of paper PMC13380429
